Like-named read-outs stand apart in the source and are kept apart here.
Key:
HBsAg [1] = test: microbe, parasite or virus in culture; assay type: cell-based, HBV genotype D; primary human hepatocytes; details: Hepatitis B virus
Experimental: (§1) The day PHH seeding date was defined as day 0.
(§2) The PHH were infected with 400 HBV GE/cell of HBV genotype D type HBV on day 1.
(§3) The test articles were further diluted with the culture medium to the final test concentrations.
(§4) All the test articles were further diluted 100 times with the culture medium. The final concentration of DMSO in the culture medium was […].
(§5) The compounds were tested at 7 concentrations, 3-fold dilution, in triplicate.
(§6) Four two-way combinations were performed on a 5×5 matrix, in triplicate plates. Transfection reagent was present in all wells. The culture medium containing the articles were refreshed every 1 or 2 days.
HBsAg in the culture supernatants harvested on days 8 was measured using the HBsAg/ELISA kit (Autobio) according to the manual. The samples were diluted with PBS to get the signal in the range of the standard curve. Percent inhibition of HBsAg was calculated with the formula below:
% Inh. HBsAg=[1−HBsAg quantity of sample/[…] of DMSO control]×100
(§7) Results of double combination studies were analyzed using MacSynergy II software (Prichard and Shipman, 1992).

HBV DNA [2] = test: HBV DNA in culture supernatants of HBV-infected PHH by qPCR, single agents and double combinations (Examples 1-4); assay type: cell-based, HBV genotype D; primary human hepatocytes; details: Hepatitis B virus
Experimental: as §1, §2, §3, §4, §5, §6
DNA in the culture supernatants harvested on days 8 was isolated with QIAamp 96 DNA Blood Kit (Qiagen-51162). For each sample, 100 μl of each culture supernatant was used to extract DNA. The DNA was eluted with 180 μl of AE. HBV DNA in the culture supernatants was quantified by quatitative PCR using primers and probes outlined in Table 3. Percent inhibition of HBV DNA was calculated with the formula below:
% Inh. HBV DNA=[1−value of sample/AVG. value of Medium control]×100.
as §7

HBsAg [3] = test: Serum HBsAg in pHBV1.3 hydrodynamic injection mouse model of HBV (Example 12); assay type: in vivo, NOD.CB17-Prkdc scid/J mice; HBV genotype D, serotype ayw; details: once daily oral from Day 0: RNA destabilizer 10 mg/kg, encapsidation inhibitor 100 mg/kg, nucleos(t)ide analog 0.4 mg/kg, group mean ± SEM, n=7 or 8, from negative control
Experimental: On Day −7, 10 micrograms of the plasmid pHBV1.3 (constructed based on details provided in Guidotti, L., et al., Journal of Virology, 1995, 69(10): 6158-6169) was administered to NOD.CB 17-Prkdc^scid/J mice via hydrodynamic injection (HDI; rapid 1.6 mL injection into the tail vein). […] As readouts of the anti-HBV effect of the treatments, serum HBV DNA and serum HBsAg were assessed. Serum HBV DNA concentration in mice was measured using a quantitative PCR assay following total DNA extraction using previously published primers and probe sequences (Tanaka, Y., et al., Journal of Medical Virology, 2004, 72: 223-229). Serum HBsAg concentration in mice was measured using a commercially available ELISA kit (HBsAg EIA 3.0 480 Test Kit, Bio-Rad).
Animals were treated with RNA destabilizer as follows: Starting on Day 0, a 10 mg/kg dosage of RNA destabilizer was administered orally to animals on a once-daily frequency for a total of seven doses across the duration of the study. Animals were treated with encapsidation inhibitor as follows: Starting on Day 0, a 100 mg/kg dosage of encapsidation inhibitor was administered orally to animals on a once-daily frequency for a total of seven doses across the duration of the study. Animals were treated with nucleos(t)ide analog as follows: Starting on Day 0, a 0.4 mg/kg dosage of nucleos(t)ide analog was administered orally to animals on a once-daily frequency for a total of seven doses across the duration of the study. The RNA destabilizer, the encapsidation inhibitor, and nucleos(t)ide analog were each dissolved in the same co-solvent formulation for administration and negative control animals were administered the co-solvent formulation alone. To calculate treatment-specific effects, the treated groups are compared against negative control (vehicle treated) animals.
The effect of these treatments was determined by collecting blood on Days −1 (prior to study's treatment phase), 4, and 7 and analyzing it for serum HBV DNA and HBsAg content.

HBV DNA [4] = assay type: in vivo, C57BL/6 mice; HBV serotype Ayw, genotype D; details: for Serum HBV DNA: group mean ± SEM, n=6
Experimental: Prior to treatment start, 1×10^11 viral genomes of an adeno-associated virus (AAV) vector carrying a 1.3-fold overlength copy of an HBV genome (serotype Ayw, genotype D) was administered to C57BL/6 mice via intravenous injection. Introduction of this viral vector results in the expression of HBV DNA and HBV surface antigen (HBsAg) amongst other HBV products. Serum HBV DNA levels in mice was measured using a quantitative polymerase chain reaction (QPCR) assay, HBsAg in serum and liver of mice was measured using an enzyme-linked immunosorbent assay (ELISA), and anti-HBsAg antibodies were measured using ELISA.
Treatment effects on serum HBV DNA were determined by collecting a small amount of blood on Days 0 (pre-treatment) and 14, as well as from terminal blood collections at Day 42. Treatment effects on HBsAg in serum and liver were determined from terminal sample collections at Day 42.
Any individual animal samples measured to fall below assay lower limit of quantitation (LLOQ) were reported as the LLOQ value.

SMILES | EC50 (HBsAg [1]) | EC50 (HBV DNA [2]) | Serum HBsAg log reduction (HBsAg [3]; Day 4) | Serum HBsAg log reduction (HBsAg [3]; Day 7) | Serum HBV DNA (HBV DNA [4]; Day 0 (pre-treatment)) | Serum HBV DNA (HBV DNA [4]; Day 14, siRNA 3 mg/kg s.c. Days 0 and 28, encapsidation inhibitor 100 mg/kg and/or TDF 1 mg/kg oral daily) | Serum HBV DNA (HBV DNA [4]; Day 42, siRNA 3 mg/kg s.c. Days 0 and 28, encapsidation inhibitor 100 mg/kg and/or TDF 1 mg/kg oral daily Days 0-41) | HBV DNA inhibition, decrease from Day 0 to Day 42 (HBV DNA [4]; serum, AAV-HBV mice, siRNA 3 mg/kg s.c. Days 0 and 28, encapsidation inhibitor 100 mg/kg and/or TDF 1 mg/kg oral daily)
CC(C)OC(=O)[C@H](C)N[P@](=O)(CO[C@H](C)Cn1cnc2c(N)ncnc21)Oc1ccccc1 [TAF, tenofovir alafenamide] | 4.12 nM | 0.083 nM | – | – | – | – | – | –
CC(C)OC(=O)OCOP(=O)(CO[C@H](C)Cn1cnc2c(N)ncnc21)OCOC(=O)OC(C)C.O=C(O)/C=C/C(=O)O [TDF, tenofovir disoproxil fumarate, reference compound] | – | – | −0.01 ± 0.12 log | 0.10 ± 0.07 log | 4.31 ± 0.10 log10 copies/microliter | 3.11 ± 0.15 log10 copies/microliter | 3.58 ± 0.14 log10 copies/microliter | 0.73 log10
